Test results reported in patent publication US20220193209A1, “COMPOSITIONS AND METHODS FOR REACTIVATING LATENT IMMUNODEFICIENCY VIRUS AND/OR TREATING IMMUNODEFICIENCY VIRUS INFECTION” (The J. David Gladstone institutes, a testamentary trust …, priority 2019, published 2022).
pIC50: −log10 of the molar value.

How the values were obtained:
FOXO1 = target: T1, FOXO1 (Homo sapiens, UniProt Q12778); experiment: Cellular Thermal Shift Assay (CETSA) in K562 cells, FOXO1; assay type: binding; conditions: 1 μM
T1 construct: performed against the FOXO isoforms expressed in K562 cells; endogenous in cells; host or cells: K562
Procedure: K562 cells (ATCC) were maintained in appropriate volume of RPMI medium supplemented with 10% fetal bovine serum (Serum Plus—II, Sigma MO, USA), 100 units/mL penicillin and 100 […] (Corning, VA, USA). Short-term passages (<15) were used for all experiments. For CETSA, K562 cell were freshly seeded the day before the experiment. The day of experiment, equal numbers of cells were counted by Moxi Mini automated cell counter (Orflo) and 0.6×10^6 cells per data point were seeded in T-25 cell culture flasks (VWR, PA, USA) in appropriate volume of culture medium. Cells were exposed to […] AS1842856 or equal volume DMSO for 3 hours in an incubator with 5% CO2 and 37° C. […] The supernatants were transferred to new microcentrifuge tubes and analyzed by SDS-PAGE followed by immunoblotting analysis. […] Immunoblotting results were subjected to densitometric analysis (Image J) and melting temperatures of FOXO1, FOXO3 and FOXO4 were determined by Prism 7 (GraphPad) using nonlinear least-squares regression fit to Y=100/(1+10^(Log IC50−X)*H), where H=Hill slope (variable). The viability of the cells was assessed in triplicate by trypan blue exclusion. […]
Briefly, K562 cells were treated with increasing concentrations of the FOXO1 inhibitor AS1842856 just after HIVGKO infection. After 3-4 days, the percentage of latent cells and productive cells were quantified by FACS. […]

[1] = test system: HIV-1 latency establishment (HIVGKO reporter virus) in K562 cells; experiment: HIVGKO dual-color reporter latency establishment in K562 cells (FACS); assay type: cell-based
Description: While the effect of FOXO1 inhibitor treatment on productive infection has been tested (Trinite, B. et al. PLoS One 9, (2014)), its effect on latent HIV previously remained unknown. To test the potential of FOXO1 inhibition to affect HIV-1 latency, the new second-generation dual-color reporter virus HIVGKO (LTR-HIV-Δ-env-nefATG-csGFP-EF1α-mKO2) and the FOXO1 inhibitor AS1842856 were employed (FIG. 1, Panel A). In this system, latently-infected K562 cells express the mKO2 fluorophore, while cells containing a productive and active virus express both mKO2 and GFP fluorophores, the latter controlled by the HIV-1 LTR. […] Concomitantly, the proportion of actively infected cells increased. […] Thus, FOXO1 inhibition prevented HIV-1 latency establishment and increased the ratio between actively and latently infected cells.
Briefly, K562 cells were treated with increasing concentrations of the FOXO1 inhibitor AS1842856 just after HIVGKO infection. After 3-4 days, the percentage of latent cells and productive cells were quantified by FACS. In left panel, amount of productive or latent cells relative to the total infection rate (bars) and cell viability (dots). In the right panel, ratios of productive versus latent populations upon increasing concentrations of AS1842856 treatments. Data are represented as mean f SD of triplicate values, representative of three independent experiments. […]

T1 sequence (Q12778 whole entry, canonical isoform): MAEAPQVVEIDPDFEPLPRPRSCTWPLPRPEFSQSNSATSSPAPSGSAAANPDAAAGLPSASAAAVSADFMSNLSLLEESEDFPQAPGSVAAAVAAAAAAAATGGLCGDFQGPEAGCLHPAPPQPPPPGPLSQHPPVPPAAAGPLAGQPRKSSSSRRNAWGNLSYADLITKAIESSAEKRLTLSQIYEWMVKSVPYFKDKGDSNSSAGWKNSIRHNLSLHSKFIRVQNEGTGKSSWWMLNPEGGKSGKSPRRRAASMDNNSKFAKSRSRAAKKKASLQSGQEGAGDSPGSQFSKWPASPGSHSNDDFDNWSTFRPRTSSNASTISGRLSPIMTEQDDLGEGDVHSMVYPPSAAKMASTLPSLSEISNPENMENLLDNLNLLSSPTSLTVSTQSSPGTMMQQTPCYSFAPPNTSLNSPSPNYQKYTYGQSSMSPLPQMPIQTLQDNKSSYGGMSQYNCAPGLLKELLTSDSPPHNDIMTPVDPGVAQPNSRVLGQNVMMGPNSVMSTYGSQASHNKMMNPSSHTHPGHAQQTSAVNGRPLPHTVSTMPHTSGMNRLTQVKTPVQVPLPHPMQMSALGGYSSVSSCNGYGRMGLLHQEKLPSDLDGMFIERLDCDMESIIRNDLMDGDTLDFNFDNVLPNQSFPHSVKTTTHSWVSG

In the case of `CCn1cc(C(=O)O)c(=O)c2c(N)c(F)c(NC3CCCCC3)cc21` [AS1842856, 5-amino-7-(cyclohexylamino)-1-ethyl-6-fluoro-4-oxo-1,4-dihydro-quinoline-3-carboxylic acid], the “shift in FOXO1 melting curve” value (FOXO1) was 7.23 °C, the pIC50 ([1]; Human immunodeficiency virus 1, K562, read-out: IC50 observed in the cell culture system) was 7.22 and the “proportion of latently infected cells” value ([1]; K562, increasing concentrations) was “decreased”.
